# From article PMC8321240, “Cell-Type-Specific High Throughput Toxicity Testing in Human Midbrain Organoids” (Frontiers in Molecular Neuroscience, 2021)
# Columns and labels:
# [1] = test system: TH+ dopaminergic and Map2+ general neurons in AMOs; assay: Primary cell-type-specific toxicity screen (whole-mount TH/Map2 staining, high content imaging); format: cell-based, human; conditions: approx. 100 μM, 48 h + 6 days, shared between both AMO lines, padj < 0.05
# Experimental: All processing steps were conducted in an HTS-compatible automated liquid handling system (ALHS, a Biomek FXP liquid handling station). To quantify different cellular subpopulations within the AMOs, we employed our previously described (Renner et al., [2020], [2021b]) ALHS-compatible workflow for combined whole-mount staining and clearing, with minor modifications. We fixed the AMOs with 4% PFA (VWR) for 10–15 min and stained the entire aggregates with primary and secondary antibodies for 6 days each. The antibodies used in this study were as follows. Primary: mouse anti-Map2 (1:1,000, Merck Millipore, cat#: MAB3418) and rabbit anti-TH (1:500, Abcam, cat#: ab112). Secondary: donkey anti-mouse IgG, Alexa Fluor 488 conjugated (1:1,000, Thermo Fisher, cat#: A-21202) and donkey anti-rabbit IgG, Alexa Fluor 647 conjugated (1:1,000, Thermo Fisher, cat#: A-31573). The antibodies were diluted in blocking and permeabilization solution consisting of 6% BSA, 0.5% Triton-X 100 (Roth), 0.1% (w/v) sodium azide (Sigma-Aldrich) in PBS (Sigma-Aldrich) and immediately added after fixation following a triple rinse with PBS. We renewed the antibody solutions once after three days. As a nuclear counter stain, we added DAPI (1 μg/ml, Sigma-Aldrich) to the solution containing the secondary antibodies. Between primary and secondary antibody application and after finishing the secondary antibody incubation, we washed the samples overnight with 0.1% Triton X-100 in PBS, with a total of five exchanges of the washing solution. […]
# We prepared and treated the AMOs with the compounds as described for the primary viability screen. […] We performed automated image acquisition of entire 96-well plates on an Operetta high content imager (Perkin Elmer) and analyzed images in the Harmony 4.1 software and/or Columbus version 2.6.0 as previously described (Renner et al., [2020]), with adjustments to account for the individual properties of the staining and samples. […]
# [2] = test system: automated midbrain organoids (AMOs); assay: Dose-response analysis, ATP-based overall AMO viability; format: cell-based, human; conditions: 48 h + 6 days; for viability: 0.01-1,000 μM (rotenone up to 100 μM), both AMO lines
# Experimental: AMOs were cultured as described above for 47 days. On day 47, we exchanged their medium to tox medium (TM), initially without the addition of any compounds. […] For each compound, we included n = 8 controls per compound treated with the corresponding solvent at an amount equivalent to the highest compound concentration. To assess viability and cell type-specific toxicity in parallel and under the same conditions, we treated all samples with the compounds for 48 h, then exchanged their medium to standard culture medium without compounds and maintained them for an additional 6 days before analysis to allow breakdown and removal of cellular debris. Organoid viability and cell type-specific toxicity were analyzed as described for the primary screens. Here, we acquired five confocal planes spaced 36.6 μm apart in our Operetta high content imager. The image analysis of the AMOs for cell type-specific toxicity assessment required minor adjustments to account for the individual properties of the staining. […] For Map2, we performed Gaussian smoothing with a width of 10 px and omitted the additional sliding parabola filter. The other steps were performed as outlined for the primary cell-type-specific toxicity screen. […] In detail: The dose-response series, including the individual solvent controls, was performed for every compound on a separate 96-well plate of AMOs with initially n = 8 organoids per concentration. […] Data processing, including normalizations, was performed for each individual compound/plate as outlined above for the primary screens. Significant differences between the Map2 and TH content were also determined in GraphPad Prism as described for the primary screen and with the same parameters (multiple comparisons were performed for the different concentrations instead of compounds).
# [3] = test system: TH+ dopaminergic and Map2+ general neurons in AMOs; assay: Dose-response analysis, TH and Map2 content by high content imaging; format: cell-based, human; conditions: 48 h + 6 days; for Map2 content (general neurons) / TH content (dopaminergic neurons): 0.01-1,000 μM (rotenone up to 100 μM), both AMO lines; for TH levels compared to Map2 levels: dose-response, padj < 0.05
# Experimental: All processing steps were conducted in an HTS-compatible automated liquid handling system (ALHS, a Biomek FXP liquid handling station). To quantify different cellular subpopulations within the AMOs, we employed our previously described (Renner et al., [2020], [2021b]) ALHS-compatible workflow for combined whole-mount staining and clearing, with minor modifications. We fixed the AMOs with 4% PFA (VWR) for 10–15 min and stained the entire aggregates with primary and secondary antibodies for 6 days each. The antibodies used in this study were as follows. Primary: mouse anti-Map2 (1:1,000, Merck Millipore, cat#: MAB3418) and rabbit anti-TH (1:500, Abcam, cat#: ab112). Secondary: donkey anti-mouse IgG, Alexa Fluor 488 conjugated (1:1,000, Thermo Fisher, cat#: A-21202) and donkey anti-rabbit IgG, Alexa Fluor 647 conjugated (1:1,000, Thermo Fisher, cat#: A-31573). The antibodies were diluted in blocking and permeabilization solution consisting of 6% BSA, 0.5% Triton-X 100 (Roth), 0.1% (w/v) sodium azide (Sigma-Aldrich) in PBS (Sigma-Aldrich) and immediately added after fixation following a triple rinse with PBS. We renewed the antibody solutions once after three days. As a nuclear counter stain, we added DAPI (1 μg/ml, Sigma-Aldrich) to the solution containing the secondary antibodies. Between primary and secondary antibody application and after finishing the secondary antibody incubation, we washed the samples overnight with 0.1% Triton X-100 in PBS, with a total of five exchanges of the washing solution. After the whole-mount staining, we performed BABB-based tissue clearing (Dent et al., [1989]) to allow image acquisition with single-cell resolution of the entire aggregates. For this purpose, we first dehydrated the AMOs via a stepwise methanol (Roth) series (25%, 50%, 70%, 90%, and 100%, each for 15 min). For clearing and imaging, we transferred them to organic solvent-resistant cyclo-olefin 96-well flat-bottom plates (“Screenstar”, Greiner Bio-One). Finally, we incubated the samples for 30 min in 1:1 (v/v) methanol/BABB (BABB consisted of benzyl alcohol (Sigma-Aldrich) and benzyl benzoate (Sigma-Aldrich) at a 1:1 (v/v) ratio) and then kept them in 100% BABB in the dark for storage and subsequent automated high content confocal fluorescent analysis.
# We prepared and treated the AMOs with the compounds as described for the primary viability screen. On day 50, after 48 h of compound incubation, we replaced the medium with standard AMO medium and maintained the AMOs for 6 additional days under standard culture conditions. This additional time allows the cells killed by the compounds to be cleared from the aggregates. After the 6 days, we fixed the organoids with 4% PFA, whole-mount-stained them for TH and Map2, and tissue-cleared them as described above. To achieve uniform aggregate positioning within the wells before imaging, we tilted the plates off the horizontal plane at 60 degrees for a minimum of 5 min. We performed automated image acquisition of entire 96-well plates on an Operetta high content imager (Perkin Elmer) and analyzed images in the Harmony 4.1 software and/or Columbus version 2.6.0 as previously described (Renner et al., [2020]), with adjustments to account for the individual properties of the staining and samples. We acquired three medial planes for each organoid, spaced 36.6 μm apart to avoid double-sampling individual morphological features. For the analysis, we defined the organoid region in each image by summing all channels, removed small localized features with a median filter (10 px), and identified putative organoids/regions of interest (ROIs) with the “find image region” function. To identify bona fide AMOs and exclude image artifacts and dust, we selected the ROIs with an area >9,000 μm^2, roundness >0.4, and mean DAPI intensity >190 arbitrary brightness units (abu).
# [4] = test system: automated midbrain organoids (AMOs); assay: Viability of 3D AMOs (CellTiter-Glo 3D) in the 2D vs 3D comparison; format: cell-based, human; conditions: for IC50: Homo sapiens, 48 h exposure from day 50
# Experimental: We cultured AMOs for 47 days in our automated system as described above. On day 47, we exchanged the organoid medium to a minimal tox medium (TM, consisting of DMEM/F-12 with 1% N2 supplement and 1% penicillin/streptomycin/glutamine) to reduce possible interference from antioxidants in the B27 media supplement. The next day, we treated the AMOs with the compounds from the library at a concentration of 100 μM in TM with some deviations due to solubility (see Supplementary Table 1 for a complete list of compounds including their final concentrations in the screen). DMSO control samples contained 0.5% (v/v) DMSO, which is equivalent to the amount of solvent in the samples that received compound treatment. After 48 h of incubation with the compounds, we either directly processed the organoids for the 48-h time point or renewed the compounds in TM once to achieve 96 h of incubation. Following either 48 or 96 h of compound incubation, we used the CellTiter-Glo 3D cell viability assay (Promega) to measure the viability of individual organoids, as previously described (Renner et al., [2020]). Briefly, the 96-well plates of AMOs and the reagents were brought to room temperature for 30 min. We adjusted the media volume of each well to 55 μl and added an equal volume (55 μl) of the CellTiter-Glo 3D reagent. Next, the samples were shaken on a Thermomixer (Eppendorf) at 900 rpm for 5 min and then incubated for 25 min at room temperature while protected from light. To minimize signal cross-talk between adjacent wells, we transferred the contents of the clear 96-well culture plates to white/opaque 384-well Lumitrac plates (Greiner) with two technical replicates (20 μl each) per sample, after the incubation. We recorded the luminescence immediately after the transfer using a Synergy Mx plate reader (BioTek). We outputted the results to Microsoft Excel for reformatting and then transferred them to GraphPad Prism v9.0.1 (Graphpad Software, Inc.) for plotting and statistical analysis.
# To compare the toxic effects of compounds on AMOs and 2D-cultured midbrain dopaminergic neurons, we seeded and cultured both in parallel and generated them from the same smNPC starting cell population. For 2D dopaminergic neuron differentiation, smNPCs were seeded in 1% (v/v in KO-DMEM/F-12) Matrigel-coated 6-well plates and standard smNPC medium, following digestion by accutase as described above. From day 2 onwards, they were treated identically with the AMOs (i.e., they received the same media at the same timepoints). To work with the 2D dopaminergic neurons in a screening setting (and have the same plate format as the AMOs), we reseeded them to flat-bottom 96-well plates (“μCLEAR”, black, Greiner) at a density of 70,000 cells/well on day 48. On day 49, the medium of both 2D mDA neurons and 3D AMOs was exchanged to tox medium. The next day, we treated them with different concentrations (0.01, 0.1, 1, 10, 50, 100, 200, 500, and 1,000 μM; controls received the corresponding solvent at an amount equivalent to the highest compound concentration; n = 6 per concentration) of the compounds lindane (Sigma-Aldrich, in ethanol) and 6-hydroxydopamine hydrochloride (Sigma Aldrich, in DMSO) in tox medium. After 48 h of incubation, we measured the samples’ viability. For the AMOs, we used the CellTiter-Glo 3D cell viability assay as described above. We measured the 2D mDA neuron viability with the CellTiter-Glo 2.0 cell viability assay (Promega) according to the manufacturer’s instructions. In short, we brought the sample plates and reagents to room temperature for 30 min. We adjusted the media volume of the samples to 50 μl and added an equal volume (50 μl) of the CellTiter-Glo 2.0 reagent. We let the plate shake for 2 min at 900 rpm on a Thermomixer and then incubated them for 10 min at room temperature and protected from light. Immediately afterward, we measured the luminescence on a Synergy Mx plate reader. […]
# [5] = test system: 2D-cultured midbrain dopaminergic (mDA) neurons; assay: Viability of 2D-cultured mDA neurons (CellTiter-Glo 2.0) in the 2D vs 3D comparison; format: cell-based; conditions: Homo sapiens, Neuron, 2D mDA neurons, 48 h exposure from day 50
# Experimental: To compare the toxic effects of compounds on AMOs and 2D-cultured midbrain dopaminergic neurons, we seeded and cultured both in parallel and generated them from the same smNPC starting cell population. For 2D dopaminergic neuron differentiation, smNPCs were seeded in 1% (v/v in KO-DMEM/F-12) Matrigel-coated 6-well plates and standard smNPC medium, following digestion by accutase as described above. From day 2 onwards, they were treated identically with the AMOs (i.e., they received the same media at the same timepoints). To work with the 2D dopaminergic neurons in a screening setting (and have the same plate format as the AMOs), we reseeded them to flat-bottom 96-well plates (“μCLEAR”, black, Greiner) at a density of 70,000 cells/well on day 48. On day 49, the medium of both 2D mDA neurons and 3D AMOs was exchanged to tox medium. The next day, we treated them with different concentrations (0.01, 0.1, 1, 10, 50, 100, 200, 500, and 1,000 μM; controls received the corresponding solvent at an amount equivalent to the highest compound concentration; n = 6 per concentration) of the compounds lindane (Sigma-Aldrich, in ethanol) and 6-hydroxydopamine hydrochloride (Sigma Aldrich, in DMSO) in tox medium. After 48 h of incubation, we measured the samples’ viability. For the AMOs, we used the CellTiter-Glo 3D cell viability assay as described above. We measured the 2D mDA neuron viability with the CellTiter-Glo 2.0 cell viability assay (Promega) according to the manufacturer’s instructions. In short, we brought the sample plates and reagents to room temperature for 30 min. We adjusted the media volume of the samples to 50 μl and added an equal volume (50 μl) of the CellTiter-Glo 2.0 reagent. We let the plate shake for 2 min at 900 rpm on a Thermomixer and then incubated them for 10 min at room temperature and protected from light. Immediately afterward, we measured the luminescence on a Synergy Mx plate reader. We outputted the results to Microsoft Excel and GraphPad Prism v9.0.1 for reformatting, plotting, and analysis. Data processing was performed as outlined for the CellTiter-Glo 3D-based viability assay above, except for the averaging of technical replicates, as measurements were performed directly in the culture plate without additional technical replicates.
# All other data analysis steps including the statistical analysis to identify significant differences in toxicity between 2D and 3D (via multiple unpaired t-tests with the same parameters as above, corrected for using the Bonferroni-Dunn method, and considering padj <0.05 as significant), as well as dose-response curve fitting, were performed as described in detail above. The IC50 values were taken from the same regression/analysis as the dose-response curves.
# [6] = test system: automated midbrain organoids (AMOs); assay: Primary organoid viability screen (ATP-based CellTiter-Glo 3D); format: cell-based, human; conditions: approx. 100 μM, 48 or 96 h, two AMO lines
# Experimental: We cultured AMOs for 47 days in our automated system as described above. On day 47, we exchanged the organoid medium to a minimal tox medium (TM, consisting of DMEM/F-12 with 1% N2 supplement and 1% penicillin/streptomycin/glutamine) to reduce possible interference from antioxidants in the B27 media supplement. The next day, we treated the AMOs with the compounds from the library at a concentration of 100 μM in TM with some deviations due to solubility (see Supplementary Table 1 for a complete list of compounds including their final concentrations in the screen). DMSO control samples contained 0.5% (v/v) DMSO, which is equivalent to the amount of solvent in the samples that received compound treatment. After 48 h of incubation with the compounds, we either directly processed the organoids for the 48-h time point or renewed the compounds in TM once to achieve 96 h of incubation. […] We recorded the luminescence immediately after the transfer using a Synergy Mx plate reader (BioTek). […]
# In detail: All compounds including their controls were arrayed on a single 96-well plate (see Supplementary Table 1 for well positions), and replicated across three plates for a total of n = 3 replicates per condition (except AMO line 2 at 48 h n = 2). […] During our analysis, we first averaged the two technical replicates from the luminescence measurement in Microsoft Excel, yielding one averaged luminescence value for each well of the original 96-well AMO plates. Then, we normalized the luminescence detected in each well to the mean luminescence of the four DMSO controls of the same plate to get a relative organoid viability value. Normalization was performed separately for each plate to account for and correct for potential differences during the luminescence measurements. […] We further assessed the homogeneity of the AMOs by calculating the coefficient of variation (CV) for the relative viabilities of the DMSO controls (i.e., we divided the standard deviations by the corresponding means and averaged the resulting CV values for the DMSO controls). […]
Compound,significant difference in reduction between TH and Map2 (dopaminergic neuron-specific toxicity) [1],viability [2],Map2 content (general neurons) [3],TH content (dopaminergic neurons) [3],TH levels compared to Map2 levels [3],toxicity in the primary screens [6],further results
"CC(C)(c1cc(Br)c(O)c(Br)c1)c1cc(Br)c(O)c(Br)c1 [TBBPA, 3,3′,5,5′-tetrabromobisphenol A]",statistically significant difference in reduction between TH and Map2,strongly reduced,strongly reduced,strongly reduced,significantly reduced TH levels compared to Map2 over a broad range of concentrations,–,–
"Cl.NCCc1cc(O)c(O)cc1O [6OHDA, 6-hydroxydopamine hydrochloride, reference compound]",–,–,–,–,–,–,"IC50 ([4]; AMO line 1, 3D): 315 µM; IC50 ([4]; AMO line 2, 3D): 269 µM; toxicity in 3D AMOs compared with 2D-cultured dopaminergic neurons ([4]; both cell lines, 48 h, 0.01-1,000 μM, padj < 0.05): significantly stronger toxic effect in 2D than 3D; IC50 ([5]; AMO line 1 cell line): 44.2 µM; IC50 ([5]; AMO line 2 cell line): 65 µM"
"Oc1c(Cl)cc(Cl)c(Cl)c1Cc1c(O)c(Cl)cc(Cl)c1Cl [HCP, hexachlorophene]",–,strongly reduced,strongly reduced,strongly reduced,–,highly toxic,–
[CH3][Hg][Cl] [methyl mercuric (II) chloride],statistically significant difference in reduction between TH and Map2,–,–,–,–,–,–
O=C1C2CC=CCC2C(=O)N1SC(Cl)(Cl)Cl (stereo not shown) [captan],–,–,reduced,reduced,significantly reduced TH levels compared to Map2 over a broad range of concentrations,intermediate toxicity,"overall toxicity in the dose-response experiments ([2]; 0.01-1,000 μM, viability, Map2 and TH readouts): intermediate compared to ASS and the more toxic compounds"
"COc1ccc2cc3[n+](cc2c1OC)CCc1cc2c(cc1-3)OCO2 [BC, berberine chloride]",statistically significant difference in reduction between TH and Map2,strongly reduced,strongly reduced,strongly reduced,significantly reduced TH levels compared to Map2 over a broad range of concentrations,–,–
